Holding throughout (format): functional
For test [1], the system named is SK-MEL-2. Description: Growth inhibition of human SK-MEL-2 cells assessed as cell growth at 10^-5 M incubated for 48 hrs by sulforhodamine B assay relative to control. As to conditions: SK-MEL-2, 48 h, read-out: Activity. Background: In SRB staining, fixed cells bind dye roughly in proportion to their protein.
Test [2] deals with UACC-62. Description: Growth inhibition of human UACC62 cells assessed as cell growth at 10^-5 M incubated for 48 hrs by sulforhodamine B assay relative to control. The following applies: UACC-62, 48 h, read-out: Activity.
Test [3] concerns MDA-MB-231. Put plainly: Growth inhibition of human MDA-MB-231 cells assessed as cell growth at 10^-5 M incubated for 48 hrs by sulforhodamine B assay relative to control. The following applies: MDA-MB-231, 48 h, read-out: Activity.
Test [4] relates to OVCAR-3. Description: Growth inhibition of human OVCAR3 cells assessed as cell growth at 10^-5 M incubated for 48 hrs by sulforhodamine B assay relative to control. As to conditions: OVCAR-3, 48 h, read-out: Activity.
Test [5] deals with OVCAR-4. Put plainly: Growth inhibition of human OVCAR4 cells assessed as cell growth at 10^-5 M incubated for 48 hrs by sulforhodamine B assay relative to control. The following applies: OVCAR-4, 48 h, read-out: Activity.
Test [6] concerns ACHN. Description: Growth inhibition of human ACHN cells assessed as cell growth at 10^-5 M incubated for 48 hrs by sulforhodamine B assay relative to control. As to conditions: read-out: Activity.
Test [7] deals with MOLT-4. Put plainly: Growth inhibition of human MOLT4 cells assessed as cell growth at 10^-5 M incubated for 48 hrs by sulforhodamine B assay relative to control. The following applies: MOLT-4, 48 h, read-out: Activity.
Test [8] concerns SF-295. Put plainly: Growth inhibition of human SF295 cells assessed as cell growth at 10^-5 M incubated for 48 hrs by sulforhodamine B assay relative to control. As to conditions: SF-295, 48 h, read-out: Activity.
The subject of test [9] is A549. Description: Growth inhibition of human A549/ATCC cells assessed as cell growth at 10^-5 M incubated for 48 hrs by sulforhodamine B assay relative to control. As to conditions: A549, 48 h, read-out: Activity.
The test system of test [10] is HCC 2998. Description: Growth inhibition of human HCC2998 cells assessed as cell growth at 10^-5 M incubated for 48 hrs by sulforhodamine B assay relative to control. The following applies: HCC 2998, 48 h, read-out: Activity.
For test [11], the system named is HCT-116. Put plainly: Growth inhibition of human HCT116 cells assessed as cell growth at 10^-5 M incubated for 48 hrs by sulforhodamine B assay relative to control. As to conditions: HCT-116, 48 h, read-out: Activity.
For test [12], the system named is MDA-MB-435. Put plainly: Growth inhibition of human MDA-MB-435 cells assessed as cell growth at 10^-5 M incubated for 48 hrs by sulforhodamine B assay relative to control. As to conditions: MDA-MB-435, 48 h, read-out: Activity.
In test [13] the test system is RXF 393. Description: Growth inhibition of human RXF393 cells assessed as cell growth at 10^-5 M incubated for 48 hrs by sulforhodamine B assay relative to control. As to conditions: RXF 393, 48 h, read-out: Activity.
Test [14] has as its system T47D. Description: Growth inhibition of human T47D cells assessed as cell growth at 10^-5 M incubated for 48 hrs by sulforhodamine B assay relative to control. As to conditions: read-out: Activity.
In test [15] the test system is MCF7. Put plainly: Growth inhibition of human MCF7 cells assessed as cell growth at 10^-5 M incubated for 48 hrs by sulforhodamine B assay relative to control. The following applies: MCF7, 48 h, read-out: Activity.
Test [16] deals with SNB-19. Description: Growth inhibition of human SNB19 cells assessed as cell growth at 10^-5 M incubated for 48 hrs by sulforhodamine B assay relative to control. The following applies: SNB-19, 48 h, read-out: Activity.
Test [17] concerns NCI-H23. Description: Growth inhibition of human NCI-H23 cells assessed as cell growth at 10^-5 M incubated for 48 hrs by sulforhodamine B assay relative to control. As to conditions: NCI-H23, 48 h, read-out: Activity.
Test [18] concerns SF-268. Description: Growth inhibition of human SF268 cells assessed as cell growth at 10^-5 M incubated for 48 hrs by sulforhodamine B assay relative to control. The following applies: SF-268, 48 h, read-out: Activity.
The test system of test [19] is SR. Put plainly: Growth inhibition of human SR cells assessed as cell growth at 10^-5 M incubated for 48 hrs by sulforhodamine B assay relative to control. As to conditions: read-out: Activity.
In test [20] the test system is HCT-15. Put plainly: Growth inhibition of human HCT15 cells assessed as cell growth at 10^-5 M incubated for 48 hrs by sulforhodamine B assay relative to control. The following applies: HCT-15, 48 h, read-out: Activity.
In test [21] the test system is NCI/ADR-RES. Put plainly: Growth inhibition of human NCI/ADR-RES cells assessed as cell growth at 10^-5 M incubated for 48 hrs by sulforhodamine B assay relative to control. The following applies: read-out: Activity.

For `Cc1nc(Nc2ccc(OCCCBr)cc2)c2c(C)nn(-c3ccccc3)c2n1`, the growth at 10 µM in [1] was 91.5%; in test [2] it was 83%; in [3], 94%; in test [4], 107%; in [5] it was 99.5%; in [6], 108%. Besides, the growth at 10 µM in test [7] amounted to 92%; in test [8] it was 96.3%; in [9] it was 78.7%; in test [10], 107%; in [11], 81.3%; in test [12] it was 100%. For the same molecule, the growth at 10 µM was determined as 97.9% in test [13]; 83.5% in test [14]; 90.3% in test [15]; 94.5% in test [16]; 97.5% in test [17]; 93.8% in test [18]. In addition, the results for the growth at 10 µM in test [19], in test [20] and in [21] were 74.6%, 94% and 107%, respectively.
For the molecule `BrCCCOc1ccc(Nc2ncnc3c2cnn3-c2ccccc2)cc1`, the growth at 10 µM in test [1] was 98%; in test [2], 91.4%; in [3], 96.9%; in test [4], 97%; in [5], 93.3%; in test [6], 96.5%. In addition, the growth at 10 µM in test [7] came out at 83.6%; in test [8], 107%; in [9], 90.7%; in test [10], 108%; in test [11] it was 96.7%; in [12], 101%. Further, the growth at 10 µM amounted to 105% in test [13]; 84.2% in test [14]; 88.8% in test [15]; 97.7% in test [16]; 91.5% in test [17]; 86% in test [18]. For the same molecule, the values for the growth at 10 µM in test [19], in test [20] and in test [21] were 82.6%, 59.2% and 98.3%, respectively.
For the molecule `Cc1nn(-c2ccccc2)c2ncnc(Nc3ccc(OCCCBr)cc3)c12`, the growth at 10 µM in [1] came out at 84%; in test [2], 89.3%; in test [3], 87.4%; in test [4], 103%; in [5] it was 99.6%; in test [6], 109%. Also, the growth at 10 µM in test [7] stood at 83.7%; in test [8] it was 93%; in test [9] it was 60.9%; in test [10], 107%; in test [11], 81.5%; in test [12], 100%. Also, the growth at 10 µM in test [13] stood at 102%; in [14], 84.8%; in test [15], 93.8%; in [16] it was 94.7%; in [17], 99%; in [18] it was 103%. Also, the growth at 10 µM in [19] stood at 81.4%; in [20], 90%; in [21] it was 102%.
Regarding `Cc1nc(Nc2ccc(OCCCBr)cc2)c2cnn(-c3ccccc3)c2n1`, the growth at 10 µM amounted to 98% in test [1]; 86.2% in test [2]; 80.4% in test [3]; 106% in test [4]; 94.3% in test [5]; 103% in test [6]. Moreover, the growth at 10 µM in [7] stood at 93.6%; in test [8], 101%; in [9], 72.2%; in test [10], 103%; in [11] it was 67.2%; in [12], 107%. Also, the growth at 10 µM came out at 104% in test [13]; 83.6% in test [14]; 82.4% in [15]; 92.6% in test [16]; 90.7% in test [17]; 86.9% in test [18]. In addition, the growth at 10 µM in test [19] came to 85.2%; in test [20], 99.2%; in test [21], 92.1%.

For the origin of these results see ChEMBL document CHEMBL4033677, “Design and synthesis of pyrazolo[3,4-d]pyrimidines: Nitric oxide releasing compounds targeting hepatocellular carcinoma” (Bioorg Med Chem, 2017).
